Paper PMC3634901 (Bioorganic & medicinal chemistry letters, 2013)
Entries after “also recorded” stand apart in the source; their conditions may differ.

Assays:
[1] = test system: retinal endothelial cells; experiment: VEGF/TNF-induced retinal endothelial permeability assay; type: cell-based; settings: dose response; in words
AGC kinases = settings: panel of 20 AGC kinases; cited from earlier work
[2] = test system: aPKC isoforms (PKCζ, PKCι); experiment: kinase potency against aPKC isoforms; settings: without discrimination for PKCζ or PKCι; in words
Erk activation = settings: endothelial cells; cited from earlier work
Akt activation = settings: endothelial cells; cited from earlier work
[3] = test system: TNF-induced NFκB activation; type: cell-based; settings: single dose of 0.1 μM; in words

COc1ccc(-c2csc(N)c2C(=O)OC(C)C)cc1OC [compound 6]
efficacy in preventing TNF/VEGF-induced endothelial permeability [1]: good efficacy
specificity towards aPKC isoforms versus AGC family members (AGC kinases): high degree of specificity; also recorded: excellent selectivity
potency against aPKC isoforms [2]: low micromolar to high nanomolar potency
block of VEGF-induced Erk activation (Erk activation): does not block
block of VEGF-induced Akt activation (Akt activation): does not block

COc1ccc(-c2csc(N)c2C(=O)OCc2ccccc2)cc1OC [compound 10]
inhibition of TNF-induced NFκB activity [3]: significant inhibition

COc1cccc(COC(=O)c2c(-c3ccc(OC)c(OC)c3)csc2N)c1 [compound 14]
potency against aPKC isoforms [2]: low micromolar to high nanomolar potency
inhibition of TNF-induced NFκB activity [3]: significant inhibition

CCOC(=O)c1c(-c2ccc(N)cc2)csc1N [compound 29]
efficacy in preventing TNF/VEGF-induced endothelial permeability [1]: good efficacy
inhibition of TNF-induced NFκB activity [3]: significant inhibition

CCOC(=O)c1c(-c2ccc(N(C)C)cc2)csc1N [compound 30]
efficacy in preventing TNF/VEGF-induced endothelial permeability [1]: good efficacy
potency against aPKC isoforms [2]: low micromolar to high nanomolar potency

CCOC(=O)c1c(-c2ccc3c(c2)OCO3)csc1N [compound 32]
efficacy in preventing TNF/VEGF-induced endothelial permeability [1]: good efficacy
potency against aPKC isoforms [2]: low micromolar to high nanomolar potency
inhibition of TNF-induced NFκB activity [3]: significant inhibition
